{"source": "paper PMC3929971", "about": "(Chemistry (Weinheim an der Bergstrasse, Germany), 2013)", "molecular_target": "T1, Mtb MraY (phospho-MurNAc-pentapeptide translocase, translocase I) (Mycobacterium tuberculosis, UniProt P9WMW7)", "T1 sequence (P9WMW7 1-359)": "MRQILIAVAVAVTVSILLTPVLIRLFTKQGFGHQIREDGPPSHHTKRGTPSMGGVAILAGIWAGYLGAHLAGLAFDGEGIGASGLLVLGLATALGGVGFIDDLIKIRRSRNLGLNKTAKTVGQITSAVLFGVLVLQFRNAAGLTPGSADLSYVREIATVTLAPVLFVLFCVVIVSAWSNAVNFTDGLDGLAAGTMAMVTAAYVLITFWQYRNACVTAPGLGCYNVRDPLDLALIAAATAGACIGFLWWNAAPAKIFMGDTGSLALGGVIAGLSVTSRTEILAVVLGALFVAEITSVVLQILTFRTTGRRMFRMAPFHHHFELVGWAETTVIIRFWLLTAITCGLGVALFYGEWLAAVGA", "test": "MraY enzyme inhibition", "type": "biochemical", "data": [{"smiles": "CO[C@H]1[C@@H](O)[C@H](n2ccc(=O)[nH]c2=O)O[C@@H]1[C@@H](O[C@H]1OC(C(=O)N[C@H]2CCCCNC2=O)=C[C@H](O)[C@@H]1O)C(N)=O", "note": "[compound 1, Capuramycin]", "values": [{"measurement": "IC50", "result": 18, "unit": "nM"}]}]}
